Like-named read-outs stand apart in the source and are kept apart here.
Experiments:
[1] = tested on: muscles of rabbits (sacrospinales group); test: Intramuscular tissue irritation in rabbits, microscopic observations (Example 2)
[2] = tested on: muscles of rabbits (sacrospinales group); settings: rabbit, in vivo

Row | Structure (SMILES) | evidence of suppuration in the inflammatory zone ([1]; Day 4 post-injection, regardless of concentration) | evidence of connective tissue irritation ([1]; Day 7 and Day 14) | evidence of connective tissue irritation [2]
1 | CSc1ccc2c(c1)N(CCC1CCCCN1C)c1ccccc1S2 (stereo not drawn) [Mellaril base, thioridazine] | high-frequency evidence of suppuration | became apparent by Day 7 and more frequent and extreme in its occurrence by Day 14 | –
2 | CN(C)CCCN1c2ccccc2Sc2ccc(Cl)cc21 [chloropromazine, Chlorpromazine] | – | – | became apparent by Day 7 and more frequent and extreme in its occurrence by Day 14
